The values that follow come from patent US12605462B2, “Porous silicon nanoparticle-based drug delivery system inducing reactive oxygen species and self-activation thereof, and method for preparing same” (University-Industry Cooperation Group of Kyung Hee …, priority 2021, dated 2026).

Data set [1] relates to BxPC-3 pancreatic tumors. As to the kind of experiment: Therapeutic efficacy in pancreatic cancer xenograft model mice. It counts as in vivo. The settings on record: 20 mg/kg via tail vein on days 34, 37, 40, 43; FIG. 25. As for the experimental part:
BALB/c nude mice (females and males, 4 weeks and 5 weeks old) were commercially obtained from Nara Co., Ltd., Gyeonggi-do, Korea. BxPC-3 cells (5×10^6 cells, suspended in 100 μl mixture of RPMI medium and Matrigel, 1:1) were injected subcutaneously behind the flank of each mouse. All animal experiments were performed according to the guidelines of the Korea Kyunghee University Animal Care Committee (IACUC).
Tumor-bearing mice were randomly divided into 5 groups (n=5 per group). (1) PBS only, (2) pSiNP only, (3) JS-11, (4) pSiNP (JS-11), and (5) ROSG-pSiNP (JS-11) were administered by intravenous injection (i.v.) 4 times at intervals of 3 days at a dose of 20 mg/kg, 100 μl each.
The mouse tumor size was recorded every 3 days until the end of the experiment, and the tumor volume was calculated by the formula V=[(tumor length)×(tumor width)^2]/[…]. At the end of the experiment (day 22), the body of each mouse was photographed with a digital camera, and body weight was measured.
Finally, the cancer treatment efficacy of ROSG-pSiNP (JS-11) was evaluated in pancreatic cancer xenograft model mice. To induce pancreatic tumors, BxPC-3 cells were injected subcutaneously behind the flank of mice on day 0. […] Changes in tumor volume and body weight in mice were monitored, and toxic effects were investigated for practical applications.

Data set [2] in a line: Conversion of JS-11 to SN-38 by ROS (emission change). Type of data set: physicochemical. The settings on record: 37° C.; reacted only with H2O2. As for the experimental part:
To confirm whether JS-11 is converted to SN-38 by ROS, the change in the emission spike of JS-11 using H2O2 at 37° C. was measured. Since JS-11 has no electron push-pull capability, there is no emission in aqueous media but decomposes upon exposure to H2O2 and fluoresces at 560 nm.

The subject of data set [3] is BxPC-3 cell lines. As to the kind of experiment: In vitro cytotoxicity of nano-formulations. Type of data set: cell-based. The settings on record: human. As for the experimental part:
Next, the cytotoxicity of pSiNP, JS-11, pSiNPs (JS-11), and ROSG-pSiNP (JS-11) was evaluated for BxPC-3 cell lines. The throughput of pSiNP (JS-11) and ROSG-pSiNP (JS-11) was corrected with the concentration of JS-11 (0 to 10 μM).
The cytotoxicity of two nano-formulations, pSiNP-NCS (without JS-11 and TEPITC-modifying) and pSiNP-NCS/CGKRK (SEQ ID NO: 1) (without JS-11 and CGKRK-modifying), was further analyzed to confirm the synergistic cytotoxic effect of JS-11 and TEPITC.

The subject of data set [4] is BxPC-3 cells. Description: Cytotoxicity of isothiocyanates (CCK-8 assay). Type of data set: cell-based, Human. The settings on record: 10 μM, 24 hours. The method, then: Next, the cytotoxicity of TEPITC was analyzed. BxPC-3 cells were treated with 0 to 10 μM of TEPITC or PEITC and incubated for 24 hours, and cytotoxicity and viability were analyzed by CCK-8 assay.

Data set [5] relates to nuclear factor erythroid 2-related factor 2 (Nrf2). As to the kind of experiment: Nrf2 expression in BxPC-3 cells by Western blot (TEPITC/PEITC). It counts as cell-based, Human. To be noted: for time of greatest increase in Nrf2 expression after incubation / expression of Nrf2: 20 μM; for expression of Nrf2: 0 to 4 hours. The method, then:
Oxidative stress-related signaling pathways were analyzed to confirm the association between […] treatment and intracellular ROS upregulation. PEITC was used as a positive control group. PEITC is known to induce Nrf2 accumulation in human prostate cancer PC-3 cells and increase the expression of endogenous heme oxygenase-1 (HO-1) protein. According to FIG. 7A, BxPC-3 cells were treated with […] It is noteworthy that the expression of Nrf2 in the […] treatment group was maximum 30 minutes after incubation began but decreased from 1 hour later.

The subject of data set [6] is heme oxygenase-1 (HO-1). Description: HO-1 expression in BxPC-3 cells by Western blot. The settings on record: 5 μM, 0 to 6 hours. It counts as cell-based, Human. The method, then: The expression level of HO-1, an antioxidant enzyme essential for cell protection against oxidative stress, was also analyzed. Cells were treated with […] (5 μM) and incubated for 0 to 6 hours. […] This is thought to be because Nrf2 is a transcription factor that regulates the expression of HO-1.

Data set [7] has as its system BxPC-3 cells. As to the kind of experiment: PEITC/TEPITC-induced intracellular ROS generation (DCFDA/DCF kit, CLSM). Type of data set: cell-based, Human. To be noted: 20 μM, 2 hours; for fluorescence intensity-based enhancement factor (DCF, ROS level) compared with before chemical treatment: FIG. 4 (BxPC-3). As for the experimental part: The intracellular ROS levels of cells were analyzed using the 2',7'-dichlorofluorosine diacetate (DCFDA/H2DCFDA) cell ROS detection analysis kit. BxPC-3, AsPC-1, and PANC-1 cells (1×10^5 cells/mL, 100 μl/well) were inoculated into 96-well black plates and incubated at 37° C. for 24 hours. The cells were then treated with PEITC or […] at 1.25, 2.5, 5, 10, and 20 μM, respectively, and then incubated at 37° C. for 2 hours. As a positive control group, a set treated with hydrogen peroxide (H2O2) was prepared. The cells were then treated with 20 μM DCFDA (100 μl) at 37° C. for 45 minutes. Excitation/emission wavelengths at 485/535 nm were measured with a microplate reader (Fluorostar Omega, BMG Labtech, Germany). Intracellular ROS generation was assessed by CLSM (LSM800, Carl Zeiss, Oberkochen, Germany) imaging using BxPC-3 cells. BxPC-3 cells (1×10^5 cells/mL, 2 mL) were inoculated into confocal plates. After 24 hours incubation, cells were treated with 20 μM PEITC and […] for 2 hours. The cells were then stained with 20 μM DCFDA (200 μL) at 37° C. for 45 minutes, washed 3 times with PBS, and stained with DAPI for 10 minutes. After washing 3 times, the cells were fixed with 4% paraformaldehyde for 20 minutes. The excitation and emission channels are: DAPI (405 nm, 400-520 nm band filter), ROS (488 nm, 400-585 nm band filter). Cells were contacted with ITC, and intracellular ROS generation was assessed. Human pancreatic cell lines BxPC-3, AsPC-1, and PANC-1 were treated with […], and ROS levels were measured using the DCFDA/DCF kit. When 2',7'-dichlorofluorescein diacetate (DCFDA) diffuses into cells, it is deacetylated to H2DCF by cellular esterase, and when H2DCF comes into contact with ROS, it is converted to green fluorescent DCF. Phenethyl isothiocyanate (PEITC) and H2O2 were used as positive control groups. Each chemical substance ([…], and H2O2, concentration=0 to 20 μM) were treated on the cell line and incubated for 2 hours.

Data set [8] relates to Nrf2. Description: Nrf2 immunofluorescence / nuclear translocation (CLSM). Type of data set: cell-based, Human. To be noted: 30 minutes, BxPC-3. As for the experimental part:
CLSM imaging was used to verify that […] induces nuclear translocation of cytoplasmic Nrf2. BxPC-3 cells were treated with […] (0 to 10 μM), incubated for 30 minutes, and visualized by treatment with Nrf2 antibody and DAPI.

In turn, `CCc1c2c(nc3ccc(OC(=O)c4ccccc4Nc4cccc(C)c4C)cc13)-c1cc3c(c(=O)n1C2)COC(=O)[C@]3(O)CC` [JS-11] gave a mean tumor volume in data set [1] of 183.1±40.8 mm^3. For the same compound, the “conversion to SN-38 under pH 3 to 10, metal ions and biomolecules” value in data set [2] is reported as “did not show the conversion to SN-38”. The cytotoxicity in data set [3] (0.625 μM) amounted to 21.60%; in data set [3] (10 μM), 42.4%.
In the case of `CCO[Si](CCCN=C=S)(OCC)OCC` [TEPITC, 3-isothiocyanatopropyltriethoxysilane], the “cytotoxicity compared to the untreated group cells” value in data set [4] is “up to 80%”. In data set [5] (0 to 20 μM), the “increase in Nrf2 level, concentration dependence” value is recorded as “concentration-dependent in the range of 2.5 to 10 μM”. For the same compound, in data set [5], the “time of greatest increase in Nrf2 expression after incubation” value amounted to 30 min and the “expression of Nrf2” value is listed as “significantly increased”. In data set [6], the “expression level of intracellular HO-1” value is “significantly increased”; the “time of highest HO-1 expression” value was 2 h and 4 h. The “intracellular ROS level (fluorescence analysis and CLSM images)” value in data set [7] (BxPC-3) was “upregulates the intracellular ROS level, and the effect was superior to PEITC”. In addition, in data set [7], the “fluorescence intensity-based enhancement factor (DCF, ROS level) compared with before chemical treatment” value came out at 6.34 times. Further, in data set [8] (2.5 μM), the Nrf2 immunofluorescence localisation result is recorded as “increase in Nrf2 expression in the cytoplasm”. In addition, the Nrf2 immunofluorescence localisation result in data set [8] (5 μM) is recorded as “in the nucleus Nrf2 expression was observed”. Further, the Nrf2 immunofluorescence localisation entry in data set [8] (10 μM) was “Nrf2 signal in the nucleus was weakened”.
For the compound `S=C=NCCc1ccccc1` [PEITC, Phenethyl isothiocyanate, reference compound], in data set [5], the “time of greatest increase in Nrf2 expression after incubation” value is 30 min and the “expression of Nrf2” value was “significantly increased”. Also, the “fluorescence intensity-based enhancement factor (DCF, ROS level) compared with before chemical treatment” value in data set [7] came out at 3.67 times.
